Measured values as given in US12459891B2, “1-[1-(4-benzyloxy-3,5-difluoro-benzoyl)-4-fluoro-pyrrolidine-2-carbonyl]-pyrrolidine-2-carbonitrile” (ACCURE THERAPEUTICS, S.L., priority 2020, dated 2025).

Key:
MK-801-treated mice = experiment: Novel object recognition (NOR) task, MK-801-induced cognitive deficit; format: in vivo, male C57/Bl6 mice; conditions: mean ± s.e.m.
POP = conditions: non-competitive POP inhibitor; read-out: IC50 (POP inhibition); cited from earlier work

C[C@]12N[C@H](Cc3ccccc31)c1ccccc12 [MK 801, Dizocilpine]
% discrimination index (MK-801-treated mice; MK 801 0.2 mg/kg sc alone (vehicle ip), intraperitoneal experiment): 21 ± 4.7%
% discrimination index (MK-801-treated mice; MK 801 0.2 mg/kg sc alone (vehicle po), oral experiment): 16.6 ± 5.9%

O=C(/C=C/c1ccc(O)c(O)c1)O[C@H](Cc1ccc(O)c(O)c1)C(=O)O [rosmarinic acid]
IC50 (POP): 63.7 µM
